Test results reported in patent US5066655A (priority 1989, dated 1991).

Experiments:
[1] = biological target: A2 receptors of human platelets (Homo sapiens, UniProt P29274); assay: Antagonism of NECA-induced stimulation of adenylate cyclase activity of human platelet membranes; assay type: biochemical; conditions: for antagonist potency at platelet A2 receptor: human platelet membranes, NECA-stimulated adenylate cyclase, result in words; for potency at platelet A2 receptor relative to PC12 A2 receptor: human platelets versus rat PC12 cells
Description: (§1) Human platelet, rat pheochromocytoma (PC12) cell, rat fat cell and rat cerebral cortex membranes were prepared as described (4,5,6). Adenylate cyclase activity and binding [^3 H]PIA to cerebral cortex membranes were determined essentially as described (4,5,6). KB values for the compounds were determined as described (4). […] EC50 and IC50 values for the agonists were obtained from the concentration-response curves by linear regression after logit-log transformation. KB values of the antagonists were calculated using the Schild equation KB =C/(CR-1), where C denotes the concentration of the competitor and CR the ratio of the EC50 and IC50 values in the presence and absence, respectively, of the competitor. IC50 of the compounds for inhibition of [^3 H]PIA binding to cerebral cortex membranes were transformed into Ki values as described (6).
In these cells, A2 receptor-mediated stimulation of adenylate cyclase results in an inhibition of aggregation (5,7).

[2] = biological target: T1, A1 receptors of rat fat cells (Rattus norvegicus, UniProt P25099); assay: Antagonism of R-PIA-induced inhibition of rat fat cell adenylate cyclase activity; assay type: biochemical; conditions: rat fat cell membranes, result in words
T1 sequence (P25099 1-326): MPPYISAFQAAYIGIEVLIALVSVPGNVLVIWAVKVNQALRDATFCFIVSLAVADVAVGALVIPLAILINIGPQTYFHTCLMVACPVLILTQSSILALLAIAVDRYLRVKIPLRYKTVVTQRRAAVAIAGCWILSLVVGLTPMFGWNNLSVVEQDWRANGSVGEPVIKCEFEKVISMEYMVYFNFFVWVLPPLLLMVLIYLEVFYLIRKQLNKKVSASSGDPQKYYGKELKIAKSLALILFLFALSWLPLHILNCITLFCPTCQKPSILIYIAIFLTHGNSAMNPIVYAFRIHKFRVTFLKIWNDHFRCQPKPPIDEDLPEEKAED
Description: as §1

A1 receptors = biological target: T2, A1 receptors (Rattus norvegicus, UniProt P25099); assay: Activity at A1 adenosine receptors (overall, fat cells and brain membranes); assay type: biochemical; conditions: discussion, fat cell and brain data
T2 sequence (P25099 1-326): T1 sequence (P25099 1-326)
Description: as §1

[3] = system: A1 and A2 adenosine receptors; assay: Activity at adenosine receptors, A1 versus A2 selectivity (overall); assay type: biochemical; conditions: for receptor selectivity A1 versus A2: in words; for stereoselectivity: A1 and A2 receptors
Description: as §1

[4] = biological target: T3, A1 adenosine receptor (guinea pig atrium) (Cavia porcellus, UniProt P47745); assay: Antagonism of adenosine agonists in isolated guinea pig left atrium (force of contraction); conditions: guinea pig atria; for antagonism of adenosine agonists in atria: result in words
T3 construct: The left atria from male guinea pigs were isolated; from tissue; host or cells: left atria of male guinea pigs
T3 sequence (P47745 1-326): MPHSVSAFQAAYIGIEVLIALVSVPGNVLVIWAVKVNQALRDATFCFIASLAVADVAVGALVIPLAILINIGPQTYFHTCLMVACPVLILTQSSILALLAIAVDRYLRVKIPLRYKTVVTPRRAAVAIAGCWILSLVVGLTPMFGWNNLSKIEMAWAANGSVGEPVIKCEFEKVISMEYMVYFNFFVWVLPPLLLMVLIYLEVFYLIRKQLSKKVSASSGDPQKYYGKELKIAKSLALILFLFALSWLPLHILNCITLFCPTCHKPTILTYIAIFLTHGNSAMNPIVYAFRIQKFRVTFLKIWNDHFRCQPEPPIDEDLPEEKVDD
Description: The left atria from male guinea pigs were isolated, suspended between two punctate electrodes, and placed in a 20 ml organ bath that contained Krebs-Hensileit solution that was continuously gassed with 95% O2 + 5% CO2 and maintained at 31° C. The resting tension was one gram. Theatria were stimulated electrically at 1 hz, 1 ms duration pulses at supramaximal voltage. The force of contraction was recorded isometrically.
(§2) The ability of the compounds to antagonize the effects of agonists was analyzed using modified Schild plots.

[5] = system: A2 adenosine receptor (guinea pig taenia caecum); assay: Antagonism of adenosine agonists in isolated guinea pig taenia caecum (contractile tone); conditions: for antagonism of adenosine agonists in taenia caecum: guinea pig taenia caecum relaxation; for sensitization of the tissue: guinea pig taenia caecum, high concentrations
Description: Taenia from the guinea pig caecum were cut into lengths of 1.5-2 cm. The tissues were suspended in a 20 ml organ bath containing de Jalon's solution that was gassed with 95% O2 + 5% CO2 and maintained at 31° C. The resting tension was 1.5 g. The contractile response was measured isotonically.
as §2

[6] = system: A2 receptors of PC12 cells; conditions: cited from earlier work

Chain of A2 receptors of human platelets (P29274 whole entry): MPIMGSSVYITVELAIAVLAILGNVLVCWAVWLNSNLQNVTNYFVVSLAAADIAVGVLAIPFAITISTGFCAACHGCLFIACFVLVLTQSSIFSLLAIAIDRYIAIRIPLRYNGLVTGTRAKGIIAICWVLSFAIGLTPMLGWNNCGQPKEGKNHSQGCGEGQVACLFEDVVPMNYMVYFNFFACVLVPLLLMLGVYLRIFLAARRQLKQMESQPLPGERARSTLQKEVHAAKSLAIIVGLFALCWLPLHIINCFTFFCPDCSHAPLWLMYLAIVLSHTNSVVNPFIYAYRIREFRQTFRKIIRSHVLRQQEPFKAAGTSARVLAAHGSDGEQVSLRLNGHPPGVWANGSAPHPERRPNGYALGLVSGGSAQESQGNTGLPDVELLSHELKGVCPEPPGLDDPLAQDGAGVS

**Q.** Which “antagonist potency at platelet A2 receptor” value [1] does the source give for `Cn1cnc2c(NC3CCC3)ncnc21` [Example 3, N^6 -Cyclobutyl-9-MA] here?
**A.** more potent than 9-methyladenine itself

**Q.** What about the “antagonist potency at A1 receptors of fat cells” value [2] of the same compound?
**A.** more potent than the parent compound 9-methyladenine

**Q.** And the “activity at A1 receptors, in words” value (A1 receptors)?
**A.** most potent of N^6 -substituted 9-methyladenines at A1 receptors

**Q.** What about the “receptor selectivity A1 versus A2” value [3] of the same compound?
**A.** selective for receptors

**Q.** For `Cn1cnc2c(NC3CCCCC3)ncnc21` [Example 6, N^6 -Cyclohexyl-9-MA], which “antagonist potency at platelet A2 receptor” value [1] is on record?
**A.** more potent than 9-methyladenine itself

**Q.** What about the “antagonist potency at A1 receptors of fat cells” value [2] of the same compound?
**A.** more potent than the parent compound 9-methyladenine

**Q.** And the “activity at A1 receptors, in words” value (A1 receptors)?
**A.** most potent of N^6 -substituted 9-methyladenines at A1 receptors

**Q.** What about the “receptor selectivity A1 versus A2” value [3] of the same compound?
**A.** selective for receptors

**Q.** With `CNc1ncnc2c1ncn2C` [Example 7, N^6 -Methyl-9-MA] as the compound, how does the “antagonist potency at platelet A2 receptor” value [1] read?
**A.** much less potent than 9-methyladenine

**Q.** And the “antagonist potency at A1 receptors of fat cells” value [2]?
**A.** less potent than 9-methyladenine

**Q.** What about the “activity at A1 receptors, in words” value (A1 receptors) of the same compound?
**A.** reduces activity

**Q.** Which results are given for `CCC(CC)Nc1ncnc2c1ncn2C` [Example 8, N^6-3-Pentyl-9-MA]?
**A.** antagonist potency at platelet A2 receptor [1]: more potent; antagonist potency at platelet A2 receptor ([1]; listed as 3-pentyl-): enhance activity; potency at platelet A2 receptor relative to PC12 A2 receptor [1]: more potent at the platelet A2 receptor than at the PC12 A2 receptor; antagonist potency at A1 receptors of fat cells [2]: more potent than the aprent compound; basal force of contraction in the atria [4]: increases in basal force of contraction; antagonism of adenosine agonists in atria [4]: competitive antagonists; antagonism of adenosine agonists in taenia caecum [5]: did not competitively antagonize the effects of adenosine agonists; sensitization of the tissue [5]: some sensitization of the tissue

**Q.** For `Cn1c(=O)c2[nH]c(-c3ccccc3)nc2n(C)c1=O` [Example 8-PT, 8-phenyltheophylline, reference compound], which “antagonism of adenosine agonists in taenia caecum” value [5] is on record?
**A.** did antagonize the effects of agonists at low concentrations

**Q.** What about the “sensitization of the tissue” value [5] of the same compound?
**A.** sensitization effect is also observed

**Q.** And the “receptor selectivity A1 versus A2” value [3]?
**A.** nonselective adenosine receptor antagonist

**Q.** For `Cn1cnc2c(Nc3ccccc3)ncnc21` [Example 9, N^6 -Phenyl-9-MA], which “antagonist potency at platelet A2 receptor” value [1] is on record?
**A.** equipotent to 9-methyladenine

**Q.** And the “potency at platelet A2 receptor relative to PC12 A2 receptor” value [1]?
**A.** more potent at the platelet A2 receptor than at the PC12 A2 receptor

**Q.** What about the “antagonist potency at A1 receptors of fat cells” value [2] of the same compound?
**A.** more potent than 9-methyladenine in the fat cell

**Q.** What does the source list for `Cn1cnc2c(Nc3ccccc3F)ncnc21` [Example 10, N^6-2-Fluorophenyl-9-MA]?
**A.** antagonist potency at platelet A2 receptor [1]: increases potency; antagonist potency at platelet A2 receptor ([1]; listed as 2-fluorophenyl-): enhance activity; antagonist potency at A1 receptors of fat cells [2]: more potent than 9-methyladenine in the fat cell

**Q.** Which “antagonist potency at platelet A2 receptor” value [1] does the source give for `Cn1cnc2c(NCc3ccccc3)ncnc21` [Example 11, N^6 -Benzyl-9-MA] here?
**A.** less potent than 9-methyladenine

**Q.** What about the “activity at A1 receptors, in words” value (A1 receptors) of the same compound?
**A.** modest activity

**Q.** For `Cn1cnc2c(NCCc3ccccc3)ncnc21` [Example 12, N^6-2-Phenethyl-9-MA], which “antagonist potency at platelet A2 receptor” value [1] is on record?
**A.** less potent than 9-methyladenine

**Q.** What about the “antagonist potency at A1 receptors of fat cells” value [2] of the same compound?
**A.** much less potent

**Q.** Which “antagonist potency at platelet A2 receptor” value [1] does the source give for `COc1cc(CCNc2ncnc3c2ncn3C)cc(OC)c1OC` [Example 13] here?
**A.** as potent as 9-methyladenine

**Q.** What about the “receptor selectivity A1 versus A2” value [3] of the same compound?
**A.** selectivity for A2 receptors

**Q.** With `Cn1cnc2c(NCCc3cccnc3)ncnc21` [Example 14, N^6-2-(3-Pyridylethyl)-9-MA] as the compound, how does the “antagonist potency at platelet A2 receptor” value [1] read?
**A.** less potent than 9-methyladenine

**Q.** For `Cn1cnc2c(NCCc3ccsc3)ncnc21` [Example 15, N^6-2-(3-Thienylethyl)-9-MA], which “antagonist potency at platelet A2 receptor” value [1] is on record?
**A.** somewhat more potent

**Q.** And the “antagonist potency at platelet A2 receptor” value ([1]; listed as 2-(3 -thienylethyl)-)?
**A.** enhance activity

**Q.** What about the “antagonist potency at A1 receptors of fat cells” value [2] of the same compound?
**A.** more potent than 9-methyladenine itself in the fat cell

**Q.** What does the source list for `C[C@H](Cc1ccccc1)Nc1ncnc2c1ncn2C` [Example 16, N^6 - -- R-1-Phenyl-2-propyl-9-MA]?
**A.** antagonist potency at platelet A2 receptor [1]: more potent than the S-isomer; antagonist potency at platelet A2 receptor ([1]; listed as R-1-phenyl-2-propyl-): enhance activity; antagonist potency at A1 receptors of fat cells [2]: more potent than the parent compound at A1 receptors of fat cells; stereoselectivity [3]: exhibit stereoselectivity at both A1 and A2 receptors

**Q.** Which “antagonist potency at A1 receptors of fat cells” value [2] does the source give for `C[C@@H](Cc1ccccc1)Nc1ncnc2c1ncn2C` [Example 17, N^6 - -- S-1-Phenyl-2-propyl-9-MA] here?
**A.** more potent than the parent compound at A1 receptors of fat cells

**Q.** And the stereoselectivity [3]?
**A.** exhibit stereoselectivity at both A1 and A2 receptors

**Q.** Which “basal force of contraction in the atria” value [4] does the source give for `CCC(Cc1cccs1)Nc1ncnc2c1ncn2C` (centres unmarked) [Example 23] here?
**A.** increases in basal force of contraction

**Q.** And the “antagonism of adenosine agonists in atria” value [4]?
**A.** competitive antagonists

**Q.** For `OC[C@H]1O[C@@H](n2cnc3c(NC4CCCCC4)ncnc32)[C@H](O)[C@@H]1O` [N^6 -cyclohexyl-], which “agonist potency at PC12 A2 receptors, in words” value (shortened to “agonist potency … in words”) [6] is on record?
**A.** more potent of the series

**Q.** Which “agonist potency … in words” value [6] does the source give for `COc1cc(CCNc2ncnc3c2ncn3[C@@H]2O[C@H](CO)[C@@H](O)[C@H]2O)cc(OC)c1OC` [N^6-2-(3,4,5-trimethoxyphenylethyl)-] here?
**A.** more potent of the series

**Q.** With `OC[C@H]1O[C@@H](n2cnc3c(NCCc4cccnc4)ncnc32)[C@H](O)[C@@H]1O` [N^6-2-(3-pyridylethyl)-] as the compound, how does the “agonist potency … in words” value [6] read?
**A.** more potent of the series

**Q.** With `OC[C@H]1O[C@@H](n2cnc3c(NCCc4ccccc4)ncnc32)[C@H](O)[C@@H]1O` [N^6-2-phenethyl-] as the compound, how does the “agonist potency … in words” value [6] read?
**A.** more potent of the series
